Legend:
OR10J5 [1] = molecular target: T1, OR10J5 (Homo sapiens, UniProt Q8NHC4); test: (+−)-2,5-dimethyl-2-indanmethanol dose-response with a steady concentration of test compound; type: cell-based; conditions: OR10J5
T1 construct: Flag; Rho (rhodopsin-derived tag); expressed in transfected cells
T1 sequence (Q8NHC4 1-309): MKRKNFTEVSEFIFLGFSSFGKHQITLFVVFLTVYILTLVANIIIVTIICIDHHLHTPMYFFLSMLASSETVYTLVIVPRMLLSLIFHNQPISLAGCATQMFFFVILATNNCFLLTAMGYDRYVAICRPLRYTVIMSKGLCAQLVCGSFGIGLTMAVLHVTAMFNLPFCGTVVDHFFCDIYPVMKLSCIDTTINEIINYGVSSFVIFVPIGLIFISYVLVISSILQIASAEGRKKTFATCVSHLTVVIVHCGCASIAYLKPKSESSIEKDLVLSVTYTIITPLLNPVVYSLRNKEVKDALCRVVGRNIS
Description: OR10J5 activity enhancement was tested with an additional agonist and with one of the test compounds and conditions described in the Examples above. Dose response curves to (+−)-2,5-dimethyl-2-indanmethanol was obtained in the presence of a steady concentration of the test compound and compared to a dose-response curve of the agonist alone. The resulting enhancement was quantified by means of EC50-fold shift (potency increase) and the efficacy span ratio (efficacy increase) as described above.

OR10J5 [2] = molecular target: T1, OR10J5; test: LYRAL® dose-response with serial enhancer concentrations, allosteric EC50 shift model; type: cell-based
Description: Functional dose-response experiments were performed to reveal the allosteric nature of the interaction between 3-(1,3-benzodioxol-5-yl)-2-methylpropanal, 3-(4-methylcyclohex-3-en-1-yl)butanal, 2,6-dimethylhept-5-enal and heptanal and OR10J5. The level of enhancement of OR10J5's activation was evaluated at distinct concentrations of each enhancer. Using the same cell-based assay described earlier, dose response curves of OR10J5 to LYRAL® in the presence of serial concentrations of the enhancers spanning from 0 to 600 μM were performed, see FIG. 5. The curves were obtained by applying the simplified Allosteric EC50 shift effect equation (available in Prism7) derived from the ternary complex interaction model. The enhancement levels recorded were not linearly dependent on the concentration of the enhancer, and the following key parameters values for α (the cooperativity factor) and KB (the equilibrium dissociation constant of the enhancer) were obtained from the model for each enhancer: 3-(1,3-benzodioxol-5-yl)-2-methylpropanal, α=6.3 and KB=10 μM; 3-(4-methylcyclohex-3-en-1-yl)butanal, α=7.5 and KB=15 μM; 2,6-dimethylhept-5-enal, α=4.1 and KB=16 μM; and heptanal; α=3.2 and KB=51 μM. α>1 is indicative of positive allosteric modulation.

Olfr16 = molecular target: T2, Olfr16 (Mus musculus, UniProt Q62007); test: LYRAL® dose-response with a steady concentration of test compound (EC50-fold shift); type: cell-based; conditions: Olfr16 (mouse ortholog); LYRAL® + steady concentration of compound vs LYRAL® alone
T2 construct: expressed in transfected cells
T2 sequence (Q62007 1-309): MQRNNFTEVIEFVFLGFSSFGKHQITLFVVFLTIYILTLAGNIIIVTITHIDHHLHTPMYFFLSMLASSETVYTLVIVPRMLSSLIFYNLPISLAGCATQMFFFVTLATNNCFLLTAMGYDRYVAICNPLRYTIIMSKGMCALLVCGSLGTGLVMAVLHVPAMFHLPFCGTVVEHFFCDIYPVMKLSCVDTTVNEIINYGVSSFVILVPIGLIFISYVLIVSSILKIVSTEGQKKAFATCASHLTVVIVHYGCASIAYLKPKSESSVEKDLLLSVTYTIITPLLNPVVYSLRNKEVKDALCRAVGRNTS
Description: (§1) LYRAL® enhancement specificity was tested on compounds that were structurally similar to enhancers identified. Dose response curves to LYRAL® were obtained in the presence of a steady concentration of a test compound and compared to a dose-response curve of LYRAL® alone. The resulting enhancement was quantified by means of EC50-fold shift (potency increase) and the efficacy span ratio (efficacy increase).
The EC50-fold shift was obtained by dividing the EC50 of LYRAL®+compound by the reference EC50 of LYRAL® alone. The span ratio was obtained by dividing the span of LYRAL®+compound by the reference span of LYRAL® alone.

[3] = molecular target: T3, OR10J5 olfactory receptor (Homo sapiens, UniProt Q8NHC4); test: Dose-response confirmation of enhancer candidates, alone and with EC20 LYRAL®; type: cell-based; conditions: response to LYRAL® raised beyond EC20 without measurable intrinsic activity
T3 construct: Flag; Rho (rhodopsin-derived tag); expressed in transfected cells
T3 sequence (Q8NHC4 1-309): T1 sequence (Q8NHC4 1-309)
Description: (§2) A dose response curve showing the activation of OR10J5 in response to the floral muguet compound 3-(4-hydroxy-4-methylpentyl)cyclohex-3-ene-1-carbaldehyde, 4-(4-hydroxy-4-methylpentyl)cyclohex-3-ene-1-carbaldehyde or a mixture thereof (sold under the tradename LYRAL®, hereinafter referred to as “LYRAL®”) is shown in FIG. 1. Using a cell-based assay, OR10J5 activity was tested in a HEK293T cell line wherein the endogenous chaperone RTP1 gene has been activated and the odorant receptor chaperone was expressed according to the methods disclosed in International Patent Application Publication No. WO2016/201153 A1. The Flag-Rho-tagged receptor was co-transfected with the olfactory canonical G-protein Golf and was exposed to a binary mixture of a single concentration of LYRAL® and a test compound.
A library of volatile compounds was used to create binary mixtures of each compound with LYRAL® at approximately EC20, a concentration eliciting only approximately 20% of full activity level of OR10J5 by itself. An activation cell-based assay was used for the initial enhancer candidate identification as disclosed in WO2019122236. Single binary mixture-induced receptor activity was detected by measuring the cAMP increase in the cytosol using an HTRF (Homogenous Time-Resolved Fluorescence unit) based kit (CisBio, cAMP dynamic 2 kit, 62AM4PEJ).
The 37 candidates remaining in Table 2 were identified and were tested in two parallel dose-response experiments to confirm the true enhancement properties of the potential candidates. First, a dose-response of each individual candidate was performed to determine if it was an agonist by itself. Second, the same candidate dose-response curve in the presence of EC20 LYRAL® concentration (generating 20% activity on OR10J5) was assessed for activity level increase.

OR10J5 [4] = molecular target: T1, OR10J5; test: LYRAL® dose-response with a steady concentration of test compound (EC50-fold shift); type: cell-based; conditions: LYRAL® + steady concentration of compound vs LYRAL® alone
Description: as §2, §1
The EC50-fold shift was obtained by dividing the EC50 of LYRAL®+compound by the reference EC50 of LYRAL® alone. […]

[5] = Odor detection threshold (ODT) forced-choice triangle tests for LYRAL® with background odor; type: in vivo, human; conditions: 28 panelists; enhancer at 0.1% vs neutral compound at 7%; main effect of Material p=0.03, interaction p=0.052
Description: Sensitivity of human individuals to LYRAL® was evaluated by performing an odor detection threshold (ODT) test. The ODT test consisted of identifying the concentration for which 50%, preferably 66%, of the panelists are able to determine which of three containers contains the target compound LYRAL® in a series of forced-choice triangle tests. Two tests were performed to calculate the ODT in mixtures containing LYRAL® plus a perceivable background odor of chemically similar molecules a) the enhancer, 3-(4-methylcyclohex-3-en-1-yl)butanal and b) the non-enhancing volatile compound, 3-[(1R)-4-methyl-3-cyclohexen-1-yl]-1-butanol. These two molecules are chemically similar. The perceived intensity of the two background odors was monitored to be isointense to control that the responses recorded answer were intensity independent.
28 panelists were given a series of triangle tests with increasing concentrations of LYRAL® in the presence of 3-(4-methylcyclohex-3-en-1-yl)butanal at a concentration of 0.1%. Within each triangle test, the three samples contained 3-(4-methylcyclohex-3-en-1-yl)butanal at 0.1% and one sample also contained LYRAL®. 28 panelists were given a series of triangle tests with increasing concentration of Lyral® in the presence of 3-[(1R)-4-methyl-3-cyclohexen-1-yl]-1-butanol at a concentration of 7%. […]

CC(C=O)Cc1ccc2c(c1)OCO2 (stereo not drawn) [3-(1,3-benzodioxol-5-yl)-2-methylpropanal]
EC50 fold shift of (+−)-2,5-dimethyl-2-indanmethanol (OR10J5 [1]; agonist + steady concentration of compound vs agonist alone): 8.6 fold | efficacy increase (span ratio) of (+−)-2,5-dimethyl-2-indanmethanol (OR10J5 [1]; within the dynamic range of the dose response): 1.7 fold | Kb (OR10J5 [2]): 10 µM | α (cooperativity factor) (OR10J5 [2]; enhancer 0 to 600 μM, allosteric EC50 shift equation (Prism7), α>1 indicates positive allosteric modulation): 6.3 | EC50 fold shift of LYRAL® (potency increase) (Olfr16): 5 fold | enhancement of OR10J5 LYRAL® activation (true enhancer) [3]: potent enhancement | EC50 fold shift of LYRAL® (potency increase) (OR10J5 [4]): 9.2 fold

CC1=CC[C@H](C(C)CC=O)CC1 (stereo partly drawn) [3-(4-methylcyclohex-3-en-1-yl)butanal]
proportion of correct LYRAL® detection responses with increasing LYRAL® concentration [5]: proportion of correct responses increased at a higher rate | enhancement of OR10J5 LYRAL® activation (true enhancer) [3]: potent enhancement

From patent US11951197B2, “Use of volatile compounds to modulate the perception of floral muguet” (FIRMENICH SA, priority 2018, dated 2024)
